Experiments:
BaF3 [1] = experiment: Antiproliferative activity against mouse BaF3 cells harbouring VEGFR2 assessed as inhibition of cell growth measured after 3 days by celltiter-glo luminescent cell viability assay; assay type: functional, cell-based; conditions: BaF3, 72 h
BaF3 [2] = experiment: Antiproliferative activity against mouse BaF3 cells harbouring FLT3-ITD assessed as inhibition of cell growth measured after 3 days by celltiter-glo luminescent cell viability assay; assay type: functional, cell-based; conditions: BaF3, 72 h
BaF3 [3] = experiment: Antiproliferative activity against wild type mouse BaF3 cells assessed as inhibition of cell growth measured after 3 days by celltiter-glo luminescent cell viability assay; assay type: functional, cell-based; conditions: BaF3, 72 h
MOLM-13 [4] = experiment: Induction of cell cycle arrest in human MOLM-13 cells assessed as accumulation of cells at S phase at 0.1 uM incubated for 48 hrs (reference value: 41.6%); assay type: functional
MOLM-13 [5] = experiment: Induction of apoptosis in human MOLM-13 cells assessed as late apoptotic cells at 0.1 uM incubated for 48 hrs by Annexin V-FITC/PI staining based flow cytometry analysis (reference value: 3.10%); assay type: functional
MOLM-13 [6] = experiment: Induction of cell cycle arrest in human MOLM-13 cells assessed as accumulation of cells at G2 phase at 0.1 uM incubated for 48 hrs (reference value: […]); assay type: functional
MOLM-13 [7] = experiment: Induction of cell cycle arrest in human MOLM-13 cells assessed as accumulation of cells at G1 phase at 0.1 uM incubated for 48 hrs (reference value: 40.3%); assay type: functional
MOLM-13 [8] = experiment: Induction of apoptosis in human MOLM-13 cells assessed as necrotic cells at 0.1 uM incubated for 48 hrs by Annexin V-FITC/PI staining based flow cytometry analysis (reference value: 0.077%); assay type: functional
MOLM-13 [9] = experiment: Induction of apoptosis in human MOLM-13 cells assessed as viable cells at 0.1 uM incubated for 48 hrs by Annexin V-FITC/PI staining based flow cytometry analysis (reference value: 91.9%); assay type: functional; conditions: read-out: Activity
MOLM-13 [10] = experiment: Induction of apoptosis in human MOLM-13 cells assessed as early apoptotic cells at 0.1 uM incubated for 48 hrs by Annexin V-FITC/PI staining based flow cytometry analysis (reference value: 4.93%); assay type: functional
MOLM-13 [11] = experiment: Antitumor activity against human MOLM-13 xenografted in male nude mouse assessed as tumor growth inhibition at 20 mg/kg, po administered once daily for 14 days by vernier caliper method relative to control; assay type: functional; conditions: MOLM-13, 336 h, time 14 day, read-out: TGI

SMILES	IC50 (BaF3 [1]) [nM]	IC50 (BaF3 [2]) [nM]	IC50 (BaF3 [3]) [µM]	also measured
Cc1cc(=O)n(-c2cc(Cl)c(F)c(Cl)c2)nc1C(=O)Nc1ccc(Oc2ccnc(NC(=O)N3CC(O)C3)c2)c(F)c1	1450	490	> 10	
Cc1cc(=O)n(-c2ccccc2Cl)nc1C(=O)Nc1ccc(Oc2ccnc(NC(=O)N3CC(O)C3)c2)c(F)c1	2960	1870	> 10	
Cc1cc(=O)n(-c2ccc(S(C)(=O)=O)cc2)nc1C(=O)Nc1ccc(Oc2ccnc(NC(=O)N3CC(O)C3)c2)c(F)c1		> 10000	> 10	
CCc1nc(C(N)=O)c(Nc2ccc(N3CCC(N4CCN(C)CC4)CC3)c(OC)c2)nc1NC1CCOCC1 [GILTERITINIB]		130		
Cc1cc(=O)n(-c2cc(Cl)ccc2F)nc1C(=O)Nc1ccc(Oc2ccnc(NC(=O)N3CCC(C(C)(C)O)CC3)c2)c(F)c1	2440	1670	> 10	
Cc1cc(=O)n(-c2cc(Cl)ccc2F)nc1C(=O)Nc1ccc(Oc2ccnc(NC(=O)NC3CC3)c2)c(F)c1	5020	7810	> 10	
Cc1cc(=O)n(-c2cc(Cl)ccc2F)nc1C(=O)Nc1ccc(Oc2ccnc(NC(=O)NC3CCOCC3)c2)c(F)c1	2050	6300	> 10	
COc1ccc(-n2nc(C(=O)Nc3ccc(Oc4ccnc(NC(=O)N5CC(O)C5)c4)c(F)c3)c(C)cc2=O)cc1	4210	1130	> 10	
Cc1cc(=O)n(-c2ccccc2)nc1C(=O)Nc1ccc(Oc2ccnc(NC(=O)N3CC(O)C3)c2)c(F)c1	1160	700	> 10	
COc1cc2nccc(Oc3ccc(NC(=O)N/N=C/c4cn(-c5ccccc5OC)nn4)cc3)c2cc1OC	8070	5820		
Cc1cc(=O)n(-c2ccc(OC(F)(F)F)cc2)nc1C(=O)Nc1ccc(Oc2ccnc(NC(=O)N3CC(O)C3)c2)c(F)c1		3910	> 10	
COc1cc(F)ccc1-n1nc(C(=O)Nc2ccc(Oc3ccnc(NC(=O)N4CC(O)C4)c3)c(F)c2)c(C)cc1=O	1480	850	> 10	
Cc1cc(=O)n(-c2cc(Cl)ccc2F)nc1C(=O)Nc1ccc(Oc2ccnc(NC(=O)N3CCC(N4CCN(C)CC4)CC3)c2)c(F)c1	1190	800	8.5	
CNC(=O)c1cc(Oc2ccc(NC(=O)Nc3ccc(Cl)c(C(F)(F)F)c3)cc2)ccn1 [SORAFENIB]	18	100		Activity (MOLM-13 [4]): 35.4%; Activity (MOLM-13 [5]): 47%; Activity (MOLM-13 [6]): 0%; Activity (MOLM-13 [7]): 62.9%; Activity (MOLM-13 [8]): 0.66%; viability at 0.1 µM (MOLM-13 [9]): 25.7%; Activity (MOLM-13 [10]): 26.7%
Cc1cc(=O)n(-c2cc(Cl)ccc2F)nc1C(=O)Nc1ccc(Oc2ccnc(NC(=O)N3CCC(C)(O)C3)c2)c(F)c1 (stereo not given)	1010	610	7.8	
Cc1cc(=O)n(-c2cc(Cl)ccc2F)nc1C(=O)Nc1ccc(Oc2ccnc(NC(=O)N3CCC(O)C3)c2)c(F)c1 (stereo not given)	1290	600	> 10	
COC1CCN(C(=O)Nc2cc(Oc3ccc(NC(=O)c4nn(-c5cc(Cl)ccc5F)c(=O)cc4C)cc3F)ccn2)C1 (stereo not given)	1120	520	> 10	
Cc1cc(=O)n(-c2cc(Cl)ccc2F)nc1C(=O)Nc1ccc(Oc2ccnc(NC(=O)N3CCC(C)CC3)c2)c(F)c1	5510	4160	> 10	
CCN(CC)CCNC(=O)c1c(C)[nH]c(/C=C2\C(=O)Nc3ccc(F)cc32)c1C [SUNITINIB]				inhibition in vivo at 20 mg/kg (MOLM-13 [11]): 73.2%
Cc1cc(=O)n(-c2ccc(C#N)cc2)nc1C(=O)Nc1ccc(Oc2ccnc(NC(=O)N3CC(O)C3)c2)c(F)c1		> 10000	> 10	

Second part, led by results:

IC50 (BaF3 [1]) [nM]	IC50 (BaF3 [2]) [nM]	IC50 (BaF3 [3]) [µM]	SMILES	also measured
770	490	> 10	Cc1cc(=O)n(-c2ccc(F)cc2)nc1C(=O)Nc1ccc(Oc2ccnc(NC(=O)N3CC(O)C3)c2)c(F)c1	
1410	550	> 10	Cc1cc(=O)n(-c2ccc(F)cc2F)nc1C(=O)Nc1ccc(Oc2ccnc(NC(=O)N3CC(O)C3)c2)c(F)c1	
1040	730	> 10	Cc1cc(=O)n(-c2cc(F)cc(Cl)c2)nc1C(=O)Nc1ccc(Oc2ccnc(NC(=O)N3CC(O)C3)c2)c(F)c1	
	4300	> 10	Cc1cc(=O)n(-c2ccc(I)cc2)nc1C(=O)Nc1ccc(Oc2ccnc(NC(=O)N3CC(O)C3)c2)c(F)c1	
440	350	9.2	Cc1cc(=O)n(-c2cccc(Cl)c2)nc1C(=O)Nc1ccc(Oc2ccnc(NC(=O)N3CC(O)C3)c2)c(F)c1	
3070	1380	> 10	Cc1cc(=O)n(-c2ccc(Br)cc2)nc1C(=O)Nc1ccc(Oc2ccnc(NC(=O)N3CC(O)C3)c2)c(F)c1	
5320	1880	> 10	Cc1cc(=O)n(-c2cc(F)ccc2Cl)nc1C(=O)Nc1ccc(Oc2ccnc(NC(=O)N3CC(O)C3)c2)c(F)c1	
850	670	> 10	Cc1cc(=O)n(-c2ccccc2F)nc1C(=O)Nc1ccc(Oc2ccnc(NC(=O)N3CC(O)C3)c2)c(F)c1	
1250	770	> 10	Cc1cc(F)ccc1-n1nc(C(=O)Nc2ccc(Oc3ccnc(NC(=O)N4CC(O)C4)c3)c(F)c2)c(C)cc1=O	
2010	1520	> 10	Cc1ccc(-n2nc(C(=O)Nc3ccc(Oc4ccnc(NC(=O)N5CC(O)C5)c4)c(F)c3)c(C)cc2=O)cc1	
700	630	> 10	Cc1cc(-n2nc(C(=O)Nc3ccc(Oc4ccnc(NC(=O)N5CC(O)C5)c4)c(F)c3)c(C)cc2=O)ccc1F	
1720	990	> 10	Cc1cc(=O)n(-c2ccc(C(F)(F)F)cc2)nc1C(=O)Nc1ccc(Oc2ccnc(NC(=O)N3CC(O)C3)c2)c(F)c1	
790	560	> 10	Cc1cc(=O)n(-c2ccc(Cl)c(F)c2)nc1C(=O)Nc1ccc(Oc2ccnc(NC(=O)N3CC(O)C3)c2)c(F)c1	
540	400	> 10	Cc1cc(=O)n(-c2ccc(F)c(Cl)c2)nc1C(=O)Nc1ccc(Oc2ccnc(NC(=O)N3CC(O)C3)c2)c(F)c1	
720	610	> 10	Cc1cc(=O)n(-c2ccc(Cl)cc2)nc1C(=O)Nc1ccc(Oc2ccnc(NC(=O)N3CC(O)C3)c2)c(F)c1	
580	470	> 10	Cc1cc(=O)n(-c2ccc(F)c(F)c2)nc1C(=O)Nc1ccc(Oc2ccnc(NC(=O)N3CC(O)C3)c2)c(F)c1	

— ChEMBL document CHEMBL6109114, “Design, synthesis, and biological evaluation of 4-(2-fluorophenoxy)pyridine derivatives as novel FLT3-ITD inhibitors” (Eur J Med Chem, 2025)
